The subject of series [1] is SH-SY5Y. Nature of the series: Cytotoxicity against differentiated human SH-SY5Y cells assessed as cell viability at 1 to 10 uM after 24 hrs by neutral red uptake assay relative to control. As to conditions: dose 1-10 µM. The format is cell-based.
The target in series [2] is T1, Amine oxidase [flavin-containing] A (Homo sapiens, UniProt P21397).
T1 sequence (P21397 whole entry): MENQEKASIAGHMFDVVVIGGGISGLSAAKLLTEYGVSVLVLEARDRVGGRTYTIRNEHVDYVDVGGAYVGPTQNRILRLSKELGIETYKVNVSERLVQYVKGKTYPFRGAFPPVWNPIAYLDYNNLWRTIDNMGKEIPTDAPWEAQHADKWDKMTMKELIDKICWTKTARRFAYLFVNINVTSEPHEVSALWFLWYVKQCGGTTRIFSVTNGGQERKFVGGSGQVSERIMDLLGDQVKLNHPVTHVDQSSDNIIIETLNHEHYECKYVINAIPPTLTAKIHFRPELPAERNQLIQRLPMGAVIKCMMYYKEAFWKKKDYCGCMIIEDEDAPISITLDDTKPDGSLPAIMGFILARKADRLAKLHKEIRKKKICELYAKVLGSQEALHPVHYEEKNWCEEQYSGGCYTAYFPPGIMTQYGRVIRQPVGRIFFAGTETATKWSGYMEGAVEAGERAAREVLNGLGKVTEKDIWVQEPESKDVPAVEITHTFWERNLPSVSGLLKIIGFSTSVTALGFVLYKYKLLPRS
Nature of the series: Inhibition of recombinant human MAOA using kynuramine as substrate measured for 30 mins by fluorescence spectrophotometric assay.

A short description of series [3]: Cytotoxicity against differentiated human SH-SY5Y cells assessed as cell viability at 10 uM after 24 hrs by resazurin reduction assay relative to control. The format is cell-based. The conditions noted are these: read-out: Activity.
Series [4] has as its target T2, Amine oxidase [flavin-containing] B (Homo sapiens, UniProt P27338).
T2 sequence (P27338 whole entry): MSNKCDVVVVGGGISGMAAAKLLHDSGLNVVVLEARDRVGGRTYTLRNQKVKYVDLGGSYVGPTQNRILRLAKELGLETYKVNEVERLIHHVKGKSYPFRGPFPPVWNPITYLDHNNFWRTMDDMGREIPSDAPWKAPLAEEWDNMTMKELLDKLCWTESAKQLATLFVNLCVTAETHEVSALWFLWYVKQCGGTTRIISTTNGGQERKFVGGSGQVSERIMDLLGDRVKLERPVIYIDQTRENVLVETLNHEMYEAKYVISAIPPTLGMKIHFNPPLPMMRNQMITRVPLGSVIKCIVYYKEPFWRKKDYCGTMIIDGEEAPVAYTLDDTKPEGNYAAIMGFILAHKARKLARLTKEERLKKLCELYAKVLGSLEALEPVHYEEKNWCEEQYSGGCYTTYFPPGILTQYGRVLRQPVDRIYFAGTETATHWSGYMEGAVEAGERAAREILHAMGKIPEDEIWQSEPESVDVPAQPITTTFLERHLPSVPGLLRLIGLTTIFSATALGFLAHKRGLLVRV
As to the kind of experiment: Inhibition of recombinant human MAOB using kynuramine as substrate measured for 30 mins by fluorescence spectrophotometric assay.

Another series is filed under the species Homo sapiens. As to the kind of experiment: Selectivity index, ratio of IC50 for inhibition of human MAOA to IC50 for inhibition of human MAOB.
The subject of series [5] is SH-SY5Y. Nature of the series: Cytotoxicity against differentiated human SH-SY5Y cells assessed as cell viability at 1 to 10 uM after 24 hrs by SRB assay relative to control. The format is cell-based. As to conditions: dose 1-10 µM.
Series [6] deals with T1, Amine oxidase [flavin-containing] A. As to the kind of experiment: Inhibition of recombinant human MAOA using kynuramine as substrate at 10 uM measured for 30 mins by fluorescence spectrophotometric assay relative to control. As to conditions: 0.5 h.
For series [7], the target named is T2, Amine oxidase [flavin-containing] B. Nature of the series: Inhibition of recombinant human MAOB using kynuramine as substrate at 10 uM measured for 30 mins by fluorescence spectrophotometric assay relative to control. As to conditions: 0.5 h.

These results are taken from ChEMBL document CHEMBL4819026, “4-Oxoquinolines and monoamine oxidase: When tautomerism matters” (Eur J Med Chem, 2021).

On to `Cn1cc(C(=O)Nc2cccc(Cl)c2)c(=O)c2ccccc21`, for which the Activity result with SH-SY5Y [1] and in the series with SH-SY5Y [5] was “Non-Toxic” each time. Also, the concentration for half-maximal inhibition (IC50) in series [2] stood at 7480 µM; in series [4], 29 µM. Moreover, the viability at 24 h, 10 µM in series [3] is more than 90%. Further, the Ratio IC50 in the series filed under Homo sapiens was found to be 258.

`Cc1ccc(NC(=O)c2cn(C)c3ccccc3c2=O)cc1C`: the Activity entry in the series on SH-SY5Y [1] and in the series on SH-SY5Y [5] was “Non-Toxic” each time. Also, the concentration for half-maximal inhibition (IC50) in series [2] stood at 1160 µM; in series [4] it was 82.3 µM. For the same molecule, in the series filed under Homo sapiens, the Ratio IC50 amounted to 19.6.

On to `Cc1ccc(NC(=O)c2c[nH]c3ccccc3c2=O)cc1C`, for which the inhibition at 10 µM in series [6] came to 15%; in series [7] it was 35%.

`O=C(Nc1ccc(Cl)c(Cl)c1)c1c[nH]c2ccccc2c1=O`: the Activity entry in the series with SH-SY5Y [1] and in the series with SH-SY5Y [5] was “Non-Toxic” in each case. Also, the IC50 in series [2] is 1740 µM; in series [4], 11.1 µM. Also, the Ratio IC50 in the series filed under Homo sapiens turned out to be 157.

In the case of `Cn1cc(C(=O)Nc2ccc(Cl)c(Cl)c2)c(=O)c2ccccc21`, the Activity entry in the series on SH-SY5Y [1] and with SH-SY5Y [5] was “Non-Toxic” throughout. In addition, in series [6], the inhibition at 10 µM amounted to 38%. For the same molecule, the viability at 24 h, 10 µM in series [3] is more than 90%. The IC50 in series [4] came out at 5.3 µM. Further, the Ratio IC50 in the series filed under Homo sapiens was more than 1890.

Turning to `O=C(Nc1cccc(Cl)c1)c1c[nH]c2ccccc2c1=O`, the inhibition at 10 µM in series [6] worked out at 8%; in series [7] it was 40%.
